# Measured values as given in patent publication US9399637B2, “Substituted heteroaryl compounds and methods of use” (Calitor Sciences, LLC, priority 2014, dated 2016).
# Assays:
# Aurora-A (h) = molecular target: T1, Aurora-A (h) (Homo sapiens, UniProt O14965); experiment: Aurora-A kinase assay; assay type: biochemical
# T1 construct: purchased Millipore UK Ltd (assays run there as a service)
# T1 sequence (O14965 1-403): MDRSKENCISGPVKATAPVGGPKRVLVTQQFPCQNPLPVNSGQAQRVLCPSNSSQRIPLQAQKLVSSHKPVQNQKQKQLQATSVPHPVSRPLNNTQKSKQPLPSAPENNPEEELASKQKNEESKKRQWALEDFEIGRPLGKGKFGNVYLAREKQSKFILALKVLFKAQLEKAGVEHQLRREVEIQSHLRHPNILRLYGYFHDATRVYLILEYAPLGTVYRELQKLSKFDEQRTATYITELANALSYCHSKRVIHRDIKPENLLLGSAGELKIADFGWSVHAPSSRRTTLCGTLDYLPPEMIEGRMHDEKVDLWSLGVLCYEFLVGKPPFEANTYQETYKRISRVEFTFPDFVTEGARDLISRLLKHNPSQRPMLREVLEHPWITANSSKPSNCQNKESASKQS
# Procedure: (§1) Kinase assays can be performed by measurement of incorporation of γ-^33P ATP into immobilized myelin basic protein (MBP). High binding white 384 well plates (Greiner) are coated with MBP (Sigma #M-1891) by incubation of 60 μL/well of 20 μg/mL MBP in Tris-buffered saline (TBS; 50 mM Tris pH 8.0, 138 mM NaCl, 2.7 mM KCl) for 24 h at 4° C. Plates are washed 3× with 100 μL TBS. Kinase reactions are carried out in a total volume of 34 μL in kinase buffer (5 mM Hepes pH 7.6, 15 mM NaCl, 0.01% bovine gamma globulin (Sigma #I-5506), 10 mM MgCl2, 1 mM DTT, 0.02% TritonX-100). Compound dilutions are performed in DMSO and added to assay wells to a final DMSO concentration of 1%. Each data point is measured in duplicate, and at least two duplicate assays are performed for each individual compound determination. Enzyme is added to final concentrations of 10 nM or 20 nM, for example. A mixture of unlabeled ATP and γ-^33P ATP is added to start the reaction (2×10^6 cpm of γ-^33P ATP per well (3000 Ci/mmole) and 10 μM unlabeled ATP, typically. The reactions are carried out for 1 h at room temperature with shaking Plates are washed 7× with TBS, followed by the addition of 50 μL/well scintillation fluid (Wallac). Plates are read using a Wallac Trilux counter. This is only one format of such assays; various other formats are possible, as known to one skilled in the art. […]
# TYK2 (h) = molecular target: T2, TYK2 (h) (Homo sapiens, UniProt P29597); experiment: TYK2 kinase assay; assay type: biochemical
# T2 construct: purchased Millipore UK Ltd (assays run there as a service)
# T2 sequence (P29597 whole entry): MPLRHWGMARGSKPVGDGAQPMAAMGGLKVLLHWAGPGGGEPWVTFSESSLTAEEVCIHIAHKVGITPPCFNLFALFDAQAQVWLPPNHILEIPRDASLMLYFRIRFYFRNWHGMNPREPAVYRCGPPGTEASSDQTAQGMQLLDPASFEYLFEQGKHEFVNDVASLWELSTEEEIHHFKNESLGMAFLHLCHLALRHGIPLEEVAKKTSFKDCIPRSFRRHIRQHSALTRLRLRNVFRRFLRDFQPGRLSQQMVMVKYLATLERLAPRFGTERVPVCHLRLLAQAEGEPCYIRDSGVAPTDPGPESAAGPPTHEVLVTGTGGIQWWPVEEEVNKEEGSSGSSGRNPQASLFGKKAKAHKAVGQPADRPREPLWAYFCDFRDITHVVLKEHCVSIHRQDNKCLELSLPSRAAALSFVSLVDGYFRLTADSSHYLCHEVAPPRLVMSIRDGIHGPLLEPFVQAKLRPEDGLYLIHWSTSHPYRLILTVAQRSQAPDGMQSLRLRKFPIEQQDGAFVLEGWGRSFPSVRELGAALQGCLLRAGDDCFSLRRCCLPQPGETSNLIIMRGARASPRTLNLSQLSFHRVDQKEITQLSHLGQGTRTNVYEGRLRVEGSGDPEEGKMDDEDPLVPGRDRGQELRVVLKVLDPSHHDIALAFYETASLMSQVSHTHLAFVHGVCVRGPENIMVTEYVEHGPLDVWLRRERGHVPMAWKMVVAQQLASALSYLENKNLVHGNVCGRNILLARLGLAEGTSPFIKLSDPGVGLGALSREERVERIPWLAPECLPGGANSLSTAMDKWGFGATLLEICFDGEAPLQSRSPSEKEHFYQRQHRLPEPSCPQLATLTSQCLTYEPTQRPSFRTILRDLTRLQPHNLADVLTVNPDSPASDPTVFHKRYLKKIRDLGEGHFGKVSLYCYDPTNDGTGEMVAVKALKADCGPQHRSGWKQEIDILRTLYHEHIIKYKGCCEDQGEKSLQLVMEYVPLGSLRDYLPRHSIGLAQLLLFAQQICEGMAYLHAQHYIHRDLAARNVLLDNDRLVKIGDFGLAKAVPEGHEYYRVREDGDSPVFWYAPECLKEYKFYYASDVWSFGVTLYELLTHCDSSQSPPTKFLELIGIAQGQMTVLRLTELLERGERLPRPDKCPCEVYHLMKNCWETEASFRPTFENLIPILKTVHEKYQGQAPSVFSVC
# Procedure: as §1
structure (smiles),measurement,setting,value
"Cc1c2ccc(Nc3ncc(Cl)c(NC4CC5CN(C(=O)CC#N)CC5C4)n3)cc2nn1C (centres unmarked) [Ex. 4, 3-(5-((5-chloro-2-((2,3-dimethyl-2H-indazol-6-yl)amino)pyrimidin-4-yl)amino)hexahydrocyclopenta[c]pyrrol-2(1H)-yl)-3-oxopropanenitrile]",IC50,Aurora-A (h),104 nM
same,IC50,TYK2 (h),20 nM
